Consider 5 molecules from PMC9518244, “TiO2 nanotube immobilised 5-lipoxygenase-mediated screening and isolation of anti-inflammatory active compounds from the leaves of lonicera japonica thunb” (Journal of Enzyme Inhibition and Medicinal Chemistry, 2022).

Data set [1] concerns rat foot swelling. Put plainly: Rat foot swelling model (egg white). The settings on record: 5.0 mg/kg intraperitoneal, 10-60 min after egg white. The class given is in vivo. How it is done: the NO kit, and the amount of NO produced in each well was calculated. Each group of experiment was performed in parallel three times.
All the animals were acclimated under standard laboratory conditions and had free access to standard water and food. All procedures were conducted in accordance with the “Guiding Principles in the Care and Use of Animals” (China) and were approved by the Ethics Committee of Biomedical Scientific Research of Henan University.
Thirty two male and female rats were divided into four groups with eight rats in each group.
They were normal saline negative control group, dexamethasone positive control group, n-butanol phase of Lonicera japonica Thunb. leaves (RDY nB) administration group and the […]
The intraperitoneal injection method was used
One hour after injection the corresponding drugs in each group, 0.1 mL of fresh egg white was injected into the right postal paw of each rat. Before and after the injection of egg white at 10, 20, 30, 40, 50, and 60 min, the volume of the right postal paw of rat was measured by a toe volume meter, and the swelling rate was calculated. […]
Statistical analysis was analyzed by one-way ANOVA through SPSS 17.0 software, and all data expressed as mean ± SD. Meanwhile, the significant difference between groups was evaluated by Tukey post-hoc test, P<0.05 and P<0.01 were considered statistically Information Classification: General […]

For data set [2], the system named is RAW264.7 cells. Put plainly: Cell morphology observation of RAW264.7 cells. The class given is cell-based, mouse. Conditions: 60 μM, with and without LPS 100 ng/mL, microscope 200x.
Protocol: The RAW264.7 mouse macrophage cell line (RAW264.7) was cultured in DMEM (Dulbecco's modified eagle medium) supplemented with 10% (v/v) Fetal bovine serum (FBS), 1×105 U·L-1 penicillin and 100 mg·L-1 streptomycin under an atmosphere of humidified 5% CO2 at 37 °C to the logarithmic phase. The samples were dissolved in DMSO and diluted with medium to the desired concentration. The content of DMSO should not exceed 1‰.
There are blank group (no test sample, no LPS), model group (100 ng/mL LPS), experimental group (60 μM test sample + LPS) and negative control group (60 μM test sample) were tested.
For cell morphology observation , the cells were seeded into 6 -well plates at an inoculation amount of 6 ×10^5/well, cultured at 37 °C and 5% CO2 for 24 h, and then the medium was changed. After 2 h incubation with different groups, LPS stimulation with a final concentration of 100 ng/mL were added into the model group and experimental group .
normal group and the negative control group were added with the same volume of PBS, and then photographed under a microscope (200x) after 22 h.
The test system of data set [3] is RAW264.7 cells. Put plainly: NO production in LPS-stimulated RAW264.7 cells (NO kit). It is filed as cell-based, mouse. The settings on record: for LPS-induced NO release in RAW264.7 cells (in words): compared with the model group.
Protocol: For the effects of the test samples on NO production research, RAW264.7 cells were seeded in 96-well plates at 3×10^4 cells/well, cultured at 37°C, 5% CO 2, and the medium was changed after 24 h. There were the blank group, model group, experimental group (20 μM, 40 μM, 60 μM test sample+LPS) and negative control group (60 μM test sample). After dosing, the cells were incubated at 37 °C with 5% CO 2 for 2 h, then LPS was added to the model group and the experimental group to make the final concentration reach 100 ng/mL, the normal group and the negative control group were added with the same volume of PBS, Then 50 μL of supernatant was taken after culturing for 20 h to record the absorbance value at 540 nm using Information Classification: General
In data set [4] the target is T1, 5-LOX (Glycine max, UniProt P08170). Kind of data set: Offline enzyme model: 5-LOX inhibition, linoleic acid / FOX reagent, A590. The class given is biochemical. The settings on record: concentration 1.0 mmol/L. The source says: Specific steps were as follows:
Information Classification: General
(1 picture or pasted object on this page, not shown here)

The test system of data set [5] is RAW264.7 cells. Kind of data set: Cytotoxicity assay (CCK-8) in RAW264.7 cells. It is filed as cell-based, mouse. Conditions: for Toxicity on RAW264.7 cells (in words): 20-60 μM, luteolin 1-5 μM. How it is done:
(§1) For cytotoxicity assay, RAW264.7 cells were seeded in 96-well plates at an inoculation amount of 3 × 10^4/well, and the medium was changed after culturing for 24 h at 37 °C and 5% […]
(§2) concentration (20 μM, 40 μM and 60 μM) of sample solution prepared with fresh medium was added dropwise to 96-well plate. After incubation for 2 h, LPS with a final concentration of 100 ng/mL was added to each well of the experimental group and the model group , the same volume of PBS was added to the normal group and the negative control group. After stimulation for another 22 h, the medium was removed and replaced with fresh medium. 10 μL of CCK-8 reagent was added at room temperature in the dark, and the absorbance was measured at a wavelength of 450 nm after 1 h. […]

In data set [6] the target is T1, 5-LOX. Kind of data set: 5-LOX immobilised on TiO2 nanotubes microreactor screening (HPLC peak area ratio). The class given is binding. The settings on record: analytes of LLJT extract eluted from immobilised 5-LOX, HPLC-MS. How it is done: Glutaraldehyde (GA) was used as crosslinking agent to covalently immobilise 5-LOX on the amino terminated TNTs. The NH2-TNTs was added to GA solution and shaken in a incubator at room temperature (25 °C) for 8 h. The resulting product was labelled GA-TNTs. Then GA-TNTs was merged with Tris-HCl solution (0.1 M, pH 7.0) containing a certain amount of 5-LOX, and the immobilisation was performed in a shaker at 4 °C for a certain time. After that, the immobilised 5-LOX was acquired by centrifuge to remove supernatant and comprehensively rinsed with Tris-HCl buffer solution several times to remove the unimmobilised enzyme. The 5-LOX-TNTs composites were suspended in Tris-HCl solution and stored at 4 °C before use.
The crude extract of leaves of Lonicera japonica Thunb. was added to 5% (v/v) methanol-Tris buffer solution, and dissolved by ultrasonic to prepare an incubation solution with a concentration of about 5.66 mg/mL. Then 25 mg of material immobilised with 5-LOX was combined with 1 mL of incubation solution and incubated at 25 °C for 90 min on a shaker. After incubation, the material was washed with 1 mL of buffer solution for six times. Then 1 mL of 90% (v/v) acetonitrile aqueous solution was used for ultrasonic elution for 10 min. After centrifugation, the supernatant was filtered and analysed by HPLC-MS.
The screening processes were the same as above.

Data set [7] in a line: Cytotoxicity assay (CCK-8) in RAW264.7 cells. The class given is cell-based, mouse. Conditions: mouse, RAW264.7 cells, read-out: Cell viability (%). How it is done: as §1, §2
The subject of data set [8] is 5-LOX. The arrangement: method as in earlier work. The settings on record: RBL-1 cells; cited from earlier work.
A short description of data set [9]: Cytotoxicity assay (CCK-8) in RAW264.7 cells. It is filed as cell-based. Conditions: mouse, no LPS, read-out: Cell viability (%).
The mark [10] stands for this setting: 40 μmol/L, LPS 100 ng/mL, vs model group.
Setting [11] is: 60 μmol/L, LPS 100 ng/mL, vs model group.

Read-outs that look alike come from different tables or passages of the source.

T1 sequence (P08170 whole entry): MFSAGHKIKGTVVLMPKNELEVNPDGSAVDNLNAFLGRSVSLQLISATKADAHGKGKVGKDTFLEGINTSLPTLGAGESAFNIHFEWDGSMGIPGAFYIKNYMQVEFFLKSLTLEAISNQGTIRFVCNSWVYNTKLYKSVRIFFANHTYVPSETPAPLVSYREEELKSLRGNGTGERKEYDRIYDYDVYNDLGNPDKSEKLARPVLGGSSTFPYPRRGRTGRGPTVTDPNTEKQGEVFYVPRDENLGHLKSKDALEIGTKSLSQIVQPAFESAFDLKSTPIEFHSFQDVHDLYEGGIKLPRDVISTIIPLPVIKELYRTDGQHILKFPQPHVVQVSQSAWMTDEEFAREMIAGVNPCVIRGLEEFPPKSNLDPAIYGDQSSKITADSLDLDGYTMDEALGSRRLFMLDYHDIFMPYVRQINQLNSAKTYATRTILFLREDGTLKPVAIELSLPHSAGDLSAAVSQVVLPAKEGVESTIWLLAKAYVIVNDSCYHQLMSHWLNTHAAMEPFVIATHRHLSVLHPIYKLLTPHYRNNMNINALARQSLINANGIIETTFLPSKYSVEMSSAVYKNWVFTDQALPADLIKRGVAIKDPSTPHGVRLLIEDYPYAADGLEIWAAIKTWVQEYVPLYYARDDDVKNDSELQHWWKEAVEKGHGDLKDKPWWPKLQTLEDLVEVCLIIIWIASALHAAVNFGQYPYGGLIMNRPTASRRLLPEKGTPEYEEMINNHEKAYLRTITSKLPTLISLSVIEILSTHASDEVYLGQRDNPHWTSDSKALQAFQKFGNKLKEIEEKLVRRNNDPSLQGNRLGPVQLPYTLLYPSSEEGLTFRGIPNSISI

As for `C[C@@H]1C[C@H]2[C@@H]3CCC4=CC(=O)C=C[C@]4(C)[C@@]3(F)[C@@H](O)C[C@]2(C)[C@@]1(O)C(=O)CO` [Dexamethasone], the “Anti-inflammatory effect, foot swelling rate” value in [1] is “showed a good anti-inflammatory effect”.
On to `O=C(/C=C/c1ccc(O)c(O)c1)O[C@H]1[C@H](O)C[C@](O)(C(=O)O)C[C@H]1OC(=O)/C=C/c1ccc(O)c(O)c1` [Isochlorogenic acid C, isochlorogenic acid C], for which the “Effect on morphology of RAW264.7 cells” value in data set [2] is “improve the deformation of the inflammatory cells”. The NO content in [3] (20 μmol/L, LPS 100 ng/mL) was 6.6 ± 0.3 µmol/L; in data set [3] (20 μmol/L, no LPS), 5.9 ± 0.4 µmol/L; in [3] (40 μmol/L, LPS 100 ng/mL) it was 6.7 ± 0.6 µmol/L; in data set [3] (60 μmol/L, LPS 100 ng/mL), 7.2 ± 0.6 µmol/L. Also, the “Inhibition rate (%) of NO production” value is 25.6% in [3] (setting [10]) and 19.9% in data set [3] (setting [11]). Further, the “LPS-induced NO release in RAW264.7 cells (in words)” value (“LPS-induced NO release” below) in data set [3] (LPS 100 ng/mL) is given as “can inhibit LPS-induced NO release in RAW264.7 cells”. Further, in [4], the “Inhibitory rate (%)” value is 40.24%. Also, the “Cell viability (%)” value in [5] (20 μmol/L, LPS 100 ng/mL) is given as 206.6±7.8%; in [5] (20 μmol/L, no LPS), 140.0±7.6%; in [5] (40 μmol/L, LPS 100 ng/mL), 188.8±1.4%; in [5] (40 μmol/L, no LPS), 190.4±0.2%; in data set [5] (60 μmol/L, LPS 100 ng/mL), 201.4±3.8%; in data set [5] (60 μmol/L, no LPS) it was 186.6±4.1%. The “Toxicity on RAW264.7 cells (in words)” value in data set [5] was “low toxicity on RAW264.7 cells”. Besides, the “Bonding rate (%)” value in data set [6] was 6.34%.
Regarding `C[C@@H]1O[C@@H](O[C@H]2[C@H](Oc3cc(O)c4c(=O)cc(-c5ccc(O)c(O)c5)oc4c3)O[C@H](CO)[C@@H](O)[C@@H]2O)[C@H](O)[C@H](O)[C@H]1O` [Lonicerin, lonicerin], the “Effect on morphology of RAW264.7 cells” value in data set [2] was “improve the deformation of the inflammatory cells”. The NO content was 6.9 ± 0.3 µmol/L in [3] (20 μmol/L, LPS 100 ng/mL); 6.1 ± 0.1 µmol/L in [3] (20 μmol/L, no LPS); 7.4 ± 0.2 µmol/L in data set [3] (40 μmol/L, LPS 100 ng/mL); 7.9 ± 2.4 µmol/L in data set [3] (60 μmol/L, LPS 100 ng/mL). In [3] (LPS 100 ng/mL), the “LPS-induced NO release” value is recorded as “could also inhibit LPS-induced NO release”. The inhibition at 20 µM in data set [3] (Mus musculus, RAW264.7, 20 μmol/L, LPS 100 ng/mL, vs model group, read-out: Inhibition rate (%) of NO production) was found to be 23.7%. Also, in data set [3] (Mus musculus, RAW264.7, 40 μmol/L, LPS 100 ng/mL, vs model group, read-out: Inhibition rate (%) of NO production), the inhibition at 40 µM was determined as 18.5%. Also, the inhibition at 60 µM in [3] (Mus musculus, RAW264.7, 60 μmol/L, LPS 100 ng/mL, vs model group, read-out: Inhibition rate (%) of NO production) stood at 12.4%. The viability at 24 h, 20 μmol/L in [7] (LPS 100 ng/mL) was 216 ± 4.2%; in data set [7] (no LPS), 196.2 ± 1.8%. Besides, the values for the viability at 24 h, 40 μmol/L in [7] (LPS 100 ng/mL) and in data set [7] (no LPS) were 204 ± 3.5% and 180 ± 9.1%, respectively. The results for the viability at 24 h, 60 μmol/L in data set [7] (LPS 100 ng/mL) and in data set [7] (no LPS) were 226 ± 7.8% and 179.4 ± 0.8%, respectively. In addition, the “Toxicity on RAW264.7 cells (in words)” value in data set [5] was “low toxicity on RAW264.7 cells”. Also, the “Bonding rate (%)” value in data set [6] was found to be 23.42%.
`O=c1cc(-c2ccc(O)c(O)c2)oc2cc(O)cc(O)c12` [Luteolin, luteolin]: the “Effect on morphology of RAW264.7 cells” value in data set [2] was “cause a large number of cell death”. Moreover, the NO content in [3] (1 μmol/L, LPS 100 ng/mL) came to 14.4 ± 0.4 µmol/L; in data set [3] (1 μmol/L, no LPS), 11.6 ± 0.6 µmol/L; in data set [3] (2 μmol/L, LPS 100 ng/mL), 12.1 ± 0.1 µmol/L; in data set [3] (5 μmol/L, LPS 100 ng/mL), 9.4 ± 0.5 µmol/L. In data set [3] (LPS 100 ng/mL), the “LPS-induced NO release” value is “failed to inhibit”. Besides, in data set [3] (Mus musculus, RAW264.7, 1 μmol/L, LPS 100 ng/mL, vs model group, read-out: Inhibition rate (%) of NO production), the inhibition at 1 µM was -51.1%. Besides, the inhibition at 2 µM in data set [3] (Mus musculus, RAW264.7, 2 μmol/L, LPS 100 ng/mL, vs model group, read-out: Inhibition rate (%) of NO production) was -26.4%. Also, the inhibition at 5 µM in data set [3] (Mus musculus, RAW264.7, 5 μmol/L, LPS 100 ng/mL, vs model group, read-out: Inhibition rate (%) of NO production) was 1.8%. For the same molecule, the IC50 in data set [8] is 810 nM. The viability at 24 h, 2 μmol/L in data set [9] stood at 104 ± 8.5%; in data set [7] (2 μmol/L, LPS 100 ng/mL) it was 199 ± 8.6%. The viability at 24 h, 1 μmol/L in data set [7] (LPS 100 ng/mL) worked out at 195 ± 2.6%; in data set [7] (no LPS) it was 120 ± 7.2%. For the same molecule, the viability at 24 h, 5 μmol/L in data set [7] (5 μmol/L, LPS 100 ng/mL) is 170 ± 3.5%. Also, the viability at 24 h, 20 μmol/L in [7] (LPS 100 ng/mL) was 52.6 ± 3.1%; in [7] (no LPS) it was 49.5 ± 3.9%. The results for the viability at 24 h, 40 μmol/L in data set [7] (LPS 100 ng/mL) and in data set [7] (no LPS) were 33.4 ± 12.9% and 22 ± 2.4%, respectively. Moreover, the viability at 24 h, 60 μmol/L turned out to be 1.4 ± 0.6% in [7] (LPS 100 ng/mL) and 1.5 ± 0.4% in data set [7] (no LPS). In data set [6], the “Bonding rate (%)” value is given as 34.85%.
With `O=c1cc(-c2ccc(O)c(O)c2)oc2cc(O[C@@H]3O[C@H](CO)[C@@H](O)[C@H](O)[C@H]3O)cc(O)c12` [Luteoloside, luteoloside], the “Effect on morphology of RAW264.7 cells” value in data set [2] was “no significant effect on cells”. Also, the NO content in [3] (20 μmol/L, LPS 100 ng/mL) turned out to be 11.5 ± 0.1 µmol/L; in [3] (20 μmol/L, no LPS), 15.8 ± 1.5 µmol/L; in data set [3] (40 μmol/L, LPS 100 ng/mL) it was 11.9 ± 0.5 µmol/L; in data set [3] (60 μmol/L, LPS 100 ng/mL) it was 13.6 ± 1.3 µmol/L. Also, the “Inhibition rate (%) of NO production” value was -20.2% in data set [3] (20 μmol/L, LPS 100 ng/mL, vs model group); -24.9% in data set [3] (setting [10]); -43.0% in data set [3] (setting [11]). The “LPS-induced NO release” value in [3] (LPS 100 ng/mL) was “failed to inhibit”. For the same molecule, in [4], the “Inhibitory rate (%)” value was found to be 27.26%. Further, the “Cell viability (%)” value in [5] (20 μmol/L, LPS 100 ng/mL) was determined as 102.6±0.4%; in [5] (20 μmol/L, no LPS), 100.2±2.1%; in [5] (40 μmol/L, LPS 100 ng/mL), 104.2±3.4%; in data set [5] (40 μmol/L, no LPS), 102.1±1.7%; in [5] (60 μmol/L, LPS 100 ng/mL), 103.2±4.8%; in [5] (60 μmol/L, no LPS), 56.8±8.8%. For the same molecule, in [6], the “Bonding rate (%)” value amounted to 8.87%.
